According to patent US8735414B2 (priority 2009, dated 2014):

Columns and labels:
[1] = test system: bicistronic HCV replicon (replicon RNA, GenBank Accession No. AJ242654); assay: HCV Replicon Assay; assay type: cell-based; settings: Hepatitis C virus, 72 h, read-out: Replicon IC50

Row | Structure (SMILES) | IC50 [1] | melting point
1 | COc1ccc2c(c1)c(C#N)c(-c1ccc(S(=O)(=O)NC(CF)CF)cn1)n2C1CCC1 [compound 550, 6-(3-cyano-1-cyclobutyl-5-methoxy-1H-indol-2-yl)-N-(1,3-difluoropropan-2-yl)pyridine-3-sulfonamide] | < 500 nM | 149 to 150 °C
2 | Cc1cc2c(cc1O)c(C#N)c(-c1ccc(S(=O)(=O)N[C@H](C)C(F)(F)F)cn1)n2C1CCC1 [compound 807, 6-(3-cyano-1-cyclobutyl-5-hydroxy-6-methyl-1H-indol-2-yl)-N-[(2R)-1,1,1-trifluoropropan-2-yl]pyridine-3-sulfonamide] | < 500 nM | 209 to 210 °C
3 | Cc1ccc2c(c1)c(C#N)c(-c1ncc(S(=O)(=O)N[C@@H](C)C(F)(F)F)cn1)n2C1CCCCC1 [compound 390, 2-(3-cyano-1-cyclohexyl-5-methyl-1H-indol-2-yl)-N-[(2S)-1,1,1-trifluoropropan-2-yl]pyrimidine-5-sulfonamide] | 500 to 2000 nM | 218 to 223 °C
4 | Cc1cc(NS(=O)(=O)C(C)(C)C)ncc1-c1c(C(N)=O)c2cc(F)c(OC(F)F)cc2n1[C@H](C)C1CC1 [compound 1087, 2-{6-[(tert-butylsulfonyl)amino]-4-methylpyridin-3-yl}-1-[(1R)-1-cyclopropylethyl]-6-(difluoromethoxy)-5-fluoro-1H-indole-3-carboxamide] | < 500 nM | 250 to 254 °C
5 | CCc1cc2c(cc1F)c(C#N)c(-c1ccc(S(=O)(=O)N[C@@H](C)C(F)(F)F)c(C)n1)n2-c1ncccn1 [compound 881, 6-[3-cyano-6-ethyl-5-fluoro-1-(pyrimidin-2-yl)-1H-indol-2-yl]-2-methyl-N-[(2S)-1,1,1-trifluoropropan-2-yl]pyridine-3-sulfonamide] | < 500 nM | 258 to 262 °C
6 | Cc1ccc2c(C#N)c(-c3ncc(S(=O)(=O)NC(CF)CF)cn3)n(C3CCCC3)c2c1 [compound 135, 2-(3-cyano-1-cyclopentyl-6-methyl-1H-indol-2-yl)-N-(1,3-difluoropropan-2-yl)pyrimidine-5-sulfonamide] | < 500 nM | 229 to 231 °C
7 | C[C@H](NS(=O)(=O)c1ccc(-c2c(C#N)c3cc(OC(F)(F)F)ccc3n2-c2cnccn2)nc1)C(F)(F)F [compound 898, 6-[3-cyano-1-(pyrazin-2-yl)-5-(trifluoromethoxy)-1H-indol-2-yl]-N-[(2S)-1,1,1-trifluoropropan-2-yl]pyridine-3-sulfonamide] | 500 to 2000 nM | 191 to 195 °C
8 | N#Cc1c(-c2ccc(S(=O)(=O)NC(CF)CF)cn2)n(C2CCCC2)c2cc(C3CC3)ccc12 [compound 85, 6-(3-cyano-1-cyclopentyl-6-cyclopropyl-1H-indol-2-yl)-N-(1,3-difluoropropan-2-yl)pyridine-3-sulfonamide] | < 500 nM | 194 to 200 °C
9 | C[C@H](NS(=O)(=O)c1ccc(-c2c(C#N)c3cc(Cl)ccc3n2C2CCCC2)nc1)C(F)(F)F [compound 365, 6-(5-chloro-3-cyano-1-cyclopentyl-1H-indol-2-yl)-N-[(2S)-1,1,1-trifluoropropan-2-yl]pyridine-3-sulfonamide] | < 500 nM | 207 to 214 °C
10 | C[C@H](NS(=O)(=O)c1ccc(-c2c(C#N)c3cc(F)c(C4CC4)cc3n2C2CCC2)nc1)C(F)(F)F [compound 630, 6-(3-cyano-1-cyclobutyl-6-cyclopropyl-5-fluoro-1H-indol-2-yl)-N-[(2S)-1,1,1-trifluoropropan-2-yl]pyridine-3-sulfonamide] | < 500 nM | 201 to 203 °C
11 | CCc1cc2c(C#N)c(-c3ccc(S(=O)(=O)N[C@@H](C)C(F)(F)F)cn3)n(C3CCC3)c2cc1OC(F)F [compound 647, 6-[3-cyano-1-cyclobutyl-6-(difluoromethoxy)-5-ethyl-1H-indol-2-yl]-N-[(2S)-1,1,1-trifluoropropan-2-yl]pyridine-3-sulfonamide] | 500 to 2000 nM | 160 to 162 °C
12 | C[C@H](NS(=O)(=O)c1ccc(-c2c(C#N)c3ccc(C4CC4)cc3n2C2CCCC2)nc1)C(F)(F)F [compound 383, 6-(3-cyano-1-cyclopentyl-6-cyclopropyl-1H-indol-2-yl)-N-[(2S)-1,1,1-trifluoropropan-2-yl]pyridine-3-sulfonamide] | < 500 nM | 178 to 181 °C
13 | Cc1cc2c(cc1Cl)c(C#N)c(-c1ccc(S(=O)(=O)N[C@@H](C)C(F)(F)F)cn1)n2-c1ccccn1 [compound 803, 6-[5-chloro-3-cyano-6-methyl-1-(pyridin-2-yl)-1H-indol-2-yl]-N-[(2S)-1,1,1-trifluoropropan-2-yl]pyridine-3-sulfonamide] | < 500 nM | 210 to 212 °C
14 | CCc1cc2c(cc1F)c(C#N)c(-c1ccc(S(=O)(=O)N[C@@H](C)C(F)(F)F)cn1)n2-c1ccc(F)cc1 [compound 1002, 6-[3-cyano-6-ethyl-5-fluoro-1-(4-fluorophenyl)-1H-indol-2-yl]-N-[(2S)-1,1,1-trifluoropropan-2-yl]pyridine-3-sulfonamide] | < 500 nM | 236 to 243 °C
15 | Cc1ccc2c(C#N)c(-c3ncc(S(=O)(=O)NC(CF)CF)cn3)n(CC3CC3)c2c1 [compound 133, 2-[3-cyano-1-(cyclopropylmethyl)-6-methyl-1H-indol-2-yl]-N-(1,3-difluoropropan-2-yl)pyrimidine-5-sulfonamide] | < 500 nM | 261 to 262 °C
16 | CC(C)NS(=O)(=O)c1cnc(-c2c(C#N)c3ccc(OC(F)(F)F)cc3n2C2CCC2)nc1 [compound 116, 2-[3-cyano-1-cyclobutyl-6-(trifluoromethoxy)-1H-indol-2-yl]-N-(propan-2-yl)pyrimidine-5-sulfonamide] | < 500 nM | 200 to 203 °C
17 | Cc1ccc2c(c1)c(C#N)c(-c1ncc(S(=O)(=O)N[C@@H](C)C(F)(F)F)cn1)n2C1CCCC1 [compound 391, 2-(3-cyano-1-cyclopentyl-5-methyl-1H-indol-2-yl)-N-[(2S)-1,1,1-trifluoropropan-2-yl]pyrimidine-5-sulfonamide] | < 500 nM | 180 to 185 °C
18 | CCc1cc2c(cc1F)c(C(N)=O)c(-c1ccc(S(=O)(=O)N[C@@H](C)C(F)(F)F)cn1)n2-c1ccc(Cl)cc1 [compound 1020, 1-(4-chlorophenyl)-6-ethyl-5-fluoro-2-(5-{[(2S)-1,1,1-trifluoropropan-2-yl]sulfamoyl}pyridin-2-yl)-1H-indole-3-carboxamide] | < 500 nM | 240 to 247 °C
19 | Cc1ccc2c(c1)c(C#N)c(-c1ccc(S(=O)(=O)NC(C)(C)C(F)(F)F)cn1)n2C1CCC1 [compound 480, 6-(3-cyano-1-cyclobutyl-5-methyl-1H-indol-2-yl)-N-(1,1,1-trifluoro-2-methylpropan-2-yl)pyridine-3-sulfonamide] | < 500 nM | 182 to 187 °C
20 | N#Cc1c(-c2ncc(S(=O)(=O)NC(CF)CF)cn2)n(C2CCC2)c2cc(F)ccc12 [compound 163, 2-(3-cyano-1-cyclobutyl-6-fluoro-1H-indol-2-yl)-N-(1,3-difluoropropan-2-yl)pyrimidine-5-sulfonamide] | 500 to 2000 nM | 193 to 195 °C
21 | C[C@H](NS(=O)(=O)c1ccc(-c2c(C#N)c3ccc(F)cc3n2C2CCCC2)nc1)C(F)(F)F [compound 396, 6-(3-cyano-1-cyclopentyl-6-fluoro-1H-indol-2-yl)-N-[(2S)-1,1,1-trifluoropropan-2-yl]pyridine-3-sulfonamide] | < 500 nM | 132 to 133 °C
22 | C[C@@H](NS(=O)(=O)c1ccc(-c2c(C#N)c3ccc(OC(F)(F)F)cc3n2C2CCCCC2)nc1)C(F)(F)F [compound 304, 6-[3-cyano-1-cyclohexyl-6-(trifluoromethoxy)-1H-indol-2-yl]-N-[(2R)-1,1,1-trifluoropropan-2-yl]pyridine-3-sulfonamide] | < 500 nM | 181 to 183 °C
23 | C[C@H](NS(=O)(=O)c1cnc(-c2c(C#N)c3cc(F)ccc3n2C2CCCC2)nc1)C(F)(F)F [compound 547, 2-(3-cyano-1-cyclopentyl-5-fluoro-1H-indol-2-yl)-N-[(2S)-1,1,1-trifluoropropan-2-yl]pyrimidine-5-sulfonamide] | < 500 nM | 214 to 218 °C
24 | C[C@H](NS(=O)(=O)c1ccc(-c2c(C#N)c3cc(F)ccc3n2C2CCCC2)nc1)C1CC1 [compound 143, 6-(3-cyano-1-cyclopentyl-5-fluoro-1H-indol-2-yl)-N-[(1S)-1-cyclopropylethyl]pyridine-3-sulfonamide] | < 500 nM | 159 to 160 °C
25 | CC(C)NS(=O)(=O)c1ccc(-c2c(C#N)c3cc(OC(F)F)ccc3n2C2CCCC2)nc1 [compound 21, 6-[3-cyano-1-cyclopentyl-5-(difluoromethoxy)-1H-indol-2-yl]-N-(propan-2-yl)pyridine-3-sulfonamide] | < 500 nM | 177 to 179 °C
26 | C[C@H](NS(=O)(=O)c1ccc(-c2c(C#N)c3cc(F)c(C4CC4)cc3n2-c2ccc(F)cn2)nc1)C(F)(F)F [compound 818, 6-[3-cyano-6-cyclopropyl-5-fluoro-1-(5-fluoropyridin-2-yl)-1H-indol-2-yl]-N-[(2S)-1,1,1-trifluoropropan-2-yl]pyridine-3-sulfonamide] | < 500 nM | 240 to 242 °C
27 | COc1ccc2c(c1)c(C#N)c(-c1ccc(S(=O)(=O)N[C@H](C)C(F)(F)F)cn1)n2C1CCC1 [compound 500, 6-(3-cyano-1-cyclobutyl-5-methoxy-1H-indol-2-yl)-N-[(2R)-1,1,1-trifluoropropan-2-yl]pyridine-3-sulfonamide] | < 500 nM | 181 to 186 °C
28 | Cc1ccc2c(C#N)c(-c3ccc(S(=O)(=O)NC(C)(C)C(F)(F)F)cn3)n(C3CCCC3)c2c1 [compound 371, 6-(3-cyano-1-cyclopentyl-6-methyl-1H-indol-2-yl)-N-(1,1,1-trifluoro-2-methylpropan-2-yl)pyridine-3-sulfonamide] | < 500 nM | 202 to 211 °C
